The text below walks through data of US20120321637A1, “COMBINATION CANCER THERAPY WITH HERV INHIBITION” (The Board of Regents of the University of Texas System, priority 2011, published 2012).

One data set has as its system A101D cell line. The note with it: human, 48 h, 1000 µM.
Data set [1] concerns BRAF mutant metastatic melanomas. The note with it: phase I clinical trial; cited from earlier work.
The next data set has as its system melanoma. Particulars: monotherapy; cited from earlier work.

The structures appear in SMILES notation.

Description for A101D cell line: The A101D cell line was treated with various combinations of PD98059 (P), 219476 (C), and AZT (A) for 48hrs after which the MTS assay was done.
CellTiter 96 Aqueous One Solution Cell Proliferation Assay (MTS, Promega) was used to measure total vial cells following manufacturer's instructions. 5,000 melanoma cells were seeded in each well of 96-well plates, and were grown for 24 hrs in media with 10% Fetal Bovine Serum (FBS). After that period, media were aspirated and various combinations of treatments were added to each well in media without serum. Based on dose-response analyses, the final concentrations used were: PD90895 at 25 μM; 219476 at 1 μM; AZT at 1000 μM. The plates were incubated for a period of 24 hrs, 48hrs, and 72 hrs, respectively. Then, the MTS solution was added to each well according to the manufacturers protocol. The plates were again incubated for 2-4 hrs, after which absorbance was measured at 490 nm. Data were analyzed and compared for treatment efficiency.

Broadly, the viability is the share of living cells, or the viability signal relative to a control. Read a high viability as better survival. `Cc1cn([C@H]2C[C@H](N=[N+]=[N-])[C@@H](CO)O2)c(=O)[nH]c1=O` [AZT] registered a viability with A101D cell line of 87.4%.
As to `CCCS(=O)(=O)Nc1ccc(F)c(C(=O)c2c[nH]c3ncc(-c4ccc(Cl)cc4)cc23)c1F` [PLX4032], in data set [1], the “BRAF mutant metastatic melanomas regressed in response to treatment” value is listed as “approximately 80%”.
With `CNC(=O)c1cc(Oc2ccc(NC(=O)Nc3ccc(Cl)c(C(F)(F)F)c3)cc2)ccn1` [sorafenib, 4-[4-[[4-chloro-3-(trifluoromethyl)phenyl]carbamoylamino]phenoxy]-N-methyl-pyridine-2-carboxamide], the “clinical benefit in melanoma patients” value in the data set with melanoma is recorded as “only shows marginal clinical benefit”.
